Test system: MDA-MB-231 human breast cancer cells
Experiment: MDA-MB-231 cell viability by LDH Cytotoxicity Detection assay
Type: cell-based
Conditions: 24 hours incubation
Procedure: To examine whether co-administration of GSSSG affects anti-tumor effects of paclitaxel, we conducted experiments using MDA-MB-231, a human breast cancer cell line (HTB-26, ATCC). Cells were cultured in the medium of 90% RPMI1640 (Corning, Cat No. 10-040-CV), 10% FBS, and 1% penicillin/streptomycin. After being seeded into a 96-well plate at the density of 20,000/well and cultured overnight, they were exposed to different concentrations of paclitaxel (0.125 μM, 0.25 μM, 0.5 μM, 1 μM, and 2 μM) and incubated for 24 hours. Cell viability was evaluated by LDH Cytotoxicity Detection Kit (Roche, Cat No. 11644793001). Briefly, a plate was centrifuged at 250×g for 10 minutes. Cells were washed with PBS and incubated with 100 μl of 1% Triton X-100 at 37° C. for 30 minutes. After mixing with assay enzyme for 30 minutes at 25° C., absorbance was measured at wavelength 492 nm to determine cell viability. Inhibitory effects of paclitaxel were calculated by half-maximal inhibitory concentration (IC50). We utilized the IC50 of paclitaxel obtained with LDH assay to examine the anti-tumor effect of paclitaxel and co-administration of GSSSG using the trypan blue exclusion assay. […] MDA-MB-231 cells were seeded 5.6×10,000/well in a 6-well plate and incubated overnight. […] After being stripped by 0.25% trypsin, live cells were counted under 0.04% trypan blue. Five wells were evaluated per group.

CC(=O)O[C@H]1C(=O)[C@@]2(C)[C@H]([C@H](OC(=O)c3ccccc3)[C@]3(O)C[C@H](OC(=O)[C@H](O)[C@@H](NC(=O)c4ccccc4)c4ccccc4)C(C)=C1C3(C)C)[C@]1(OC(C)=O)CO[C@@H]1C[C@@H]2O [paclitaxel, Paclitaxel, reference compound]
IC50: 1.66 µM

— patent US20260097091A1, “ADMINISTRATION OF GLUTATHIONE TRISULFIDE TO AMELIORATE PERIPHERAL NEUROPATHY” (The General Hospital Corporation, priority 2022, published 2026)
